Common to all, as to experiment: NCI tumour cell line growth inhibition, 48 h
Experiment [1] deals with MOLT-4.
For experiment [2], the system named is NCI-H226.
Experiment [3] deals with OVCAR-4.
In experiment [4] the test system is SNB-19.
Experiment [5] deals with NCI-H522.
Experiment [6] deals with SK-OV-3.
Experiment [7] has as its system UACC-257.
In experiment [8] the test system is MDA-MB-231.
The test system of experiment [9] is IGROV-1.
In experiment [10] the test system is M14.
Experiment [11] deals with ACHN.
Experiment [12] deals with T47D.
The subject of experiment [13] is BT-549.
The subject of experiment [14] is MDA-MB-435.
The subject of experiment [15] is CCRF-CEM.
Experiment [16] concerns SK-MEL-28.
Experiment [17] relates to TK-10.
The test system of experiment [18] is NCI-H23.
The test system of experiment [19] is HCT-15.
For experiment [20], the system named is OVCAR-5.

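1) Cells in 96-well plates. 2) Compound, 48 h, 5 concentrations. 3) Linear interpolation between surrounding doses. 4) Unreached endpoint = highest concentration. GI50 is the concentration that inhibits growth by half.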 The source made the active and inactive calls. Cut-off read from the data, not from the text of the source: active = GI50 up to about 1.1 µM and inactive = higher.

In the case of `C=C(Cl)COC(=O)Nc1cccc(Cl)c1`, the GI50 in [1] is 57.5 µM (inactive); in [2] it was 44.8 µM (inactive); in experiment [3], 16.2 µM (inactive); in [4], 35.6 µM (inactive); in experiment [5], 25.1 µM (inactive); in experiment [6], 72.8 µM (inactive). Also, the GI50 in experiment [7] is 31 µM (inactive); in experiment [8], 40.4 µM (inactive); in experiment [9] it was 26.7 µM (inactive); in experiment [10], 35.4 µM (inactive); in experiment [11], 34.9 µM (inactive); in [12], 22.9 µM (inactive). In addition, the GI50 in [13] is 26.7 µM (inactive); in experiment [14], 30.1 µM (inactive); in [15] it was 28.2 µM (inactive); in [16], 42.1 µM (inactive); in experiment [17] it was 60 µM (inactive); in experiment [18] it was 30.4 µM (inactive). Besides, the figures for the GI50 in experiment [19] and in experiment [20] were 28.6 µM and 48.2 µM (inactive), respectively.
On to `CN(C1=NS(=O)(=O)N=C(N(C)c2ccccc2)O1)c1ccccc1`, for which the GI50 in [1] is 27.4 µM (inactive); in experiment [2] it was 14.9 µM (inactive); in experiment [3] it was 20.8 µM (inactive); in experiment [4], 18.7 µM (inactive); in experiment [5] it was 18.5 µM (inactive); in [6], 40.1 µM (inactive). Also, the GI50 in [7] was 19.1 µM (inactive); in [8] it was 17.6 µM (inactive); in experiment [9], 23.3 µM (inactive); in experiment [10] it was 18.9 µM (inactive); in [11] it was 17.3 µM (inactive); in experiment [12], 21.2 µM (inactive). Moreover, the GI50 in experiment [13] was 8.38 µM (inactive); in [14], 13.8 µM (inactive); in experiment [15] it was 13.4 µM (inactive); in experiment [16] it was 22.8 µM (inactive); in experiment [17], 35.1 µM (inactive); in experiment [18], 11.5 µM (inactive). The GI50 is 15.1 µM in [19] and 23.1 µM (inactive) in [20].
In the case of `O=C1c2ccccc2-c2c1c1ccccc1c(=O)n2-c1ccccc1`, the GI50 in experiment [1] was > 100 µM (inactive); in experiment [2], 12.2 µM (inactive); in experiment [3], 2.86 µM (inactive); in [4] it was 5.7 µM (inactive); in experiment [5], 18.2 µM (inactive); in experiment [6], 13.2 µM (inactive). The GI50 is > 82.4 µM (inactive) in [7]; 9.66 µM (inactive) in experiment [8]; 13.8 µM (inactive) in [9]; 47.2 µM (inactive) in experiment [10]; 5.09 µM (inactive) in experiment [11]; 15.8 µM (inactive) in [12]. Besides, the GI50 is 14.4 µM (inactive) in [13]; > 100 µM (inactive) in experiment [14]; > 100 µM (inactive) in [15]; > 100 µM (inactive) in experiment [16]; 11.7 µM (inactive) in [17]; 11.6 µM (inactive) in experiment [18]. In addition, the values for the GI50 in experiment [19] and in [20] were 27.9 µM and 45.5 µM (inactive), respectively.
Turning to `CC(=O)N(O)[C@@H]1CC[C@H](n2cnc3c(N)ncnc32)C1`, the GI50 in experiment [1], in experiment [2], in experiment [3], in experiment [4], in experiment [5] and in [6] was > 100 µM (inactive) each time. Further, the GI50 in experiment [7], in [8], in experiment [9], in experiment [10], in experiment [11] and in experiment [12] was > 100 µM (inactive) throughout. Further, the GI50 in experiment [13], in [14], in experiment [15], in [16], in [17] and in [18] was > 100 µM (inactive) each time. Also, the GI50 is more than 100 µM in [19] and > 100 µM (inactive) in experiment [20].

(Values after ChEMBL document CHEMBL1201862, “PubChem BioAssay data set” (2004).)
